The target of one experiment is T1, USP7 (Homo sapiens, UniProt Q93009, C315A).
T1 construct: 0.25 nM His-His-USP7 (aa208-560, |C315A|) was incubated with compound; His-His (N)
Kind of experiment: Inhibition of USP7 by Fluorescence Intensity (FLINT) readings, Ubiquitin-Rhodamine-110 substrate. The note with it: 0.25 nM His-His-USP7 (aa208-560), 60 minutes at 30° C. preincubation; Ki determined from IC50 according to Cer et al. It counts as biochemical. In a few lines:
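His-tagged USP7 (aa208-560, C315A), 0.25 nM, preincubated with compound 60 min at 30 °C in 100 mM Bicine pH 8.0, 0.01% Triton X-100, 1 mM TCEP, 10% DMSO. Ubiquitin-Rhodamine-110 (50 nM or 4 μM) added; kinetic fluorescence (Ex 485/Em 535 nm) over 21 min; IC50 from 11-point curves, Ki derived from IC50.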

Experiment [1] deals with Z138 mantle cell lymphoma tumour cell lines. Kind of experiment: In vitro cytotoxicity, MTT assay. It counts as cell-based. The note with it: Homo sapiens, Z-138; Z138 cells, exposed to the test compounds for 96 hours. Summed up:
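Z138 cells exposed to compounds for 96 hours, then MTT added for 4 hours. Formazan absorbance at 540 nm serves as the measure of viable cell number.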
Background: Tetrazolium assays rely on reduction of a dye to a coloured formazan, in cell work by metabolically active cells.

Ki and IC50 data for 20 molecules are collected here from US20210355106A1, “NEW AMINO-PYRIMIDONYL-PIPERIDINYL DERIVATIVES, A PROCESS FOR THEIR PREPARATION AND PHARMACEUTICAL COMPOSITIONS CONTAINING THEM” (LES LABORATOIRES SERVIER, priority 2018, published 2021).

As usually defined, the Ki is the equilibrium dissociation constant of an inhibitor or competing ligand from its target. Low readings indicate tighter binding, high ones weaker binding. Usually IC50 stands for the point on the concentration scale where inhibition reaches its midpoint. Higher therefore signals a need for much substance.

Several values for one entry are separate records, joined by “and”; a condition that tells them apart may be missing. Equal entries are not always repeated.

T1 sequence (Q93009 208-560 C315A): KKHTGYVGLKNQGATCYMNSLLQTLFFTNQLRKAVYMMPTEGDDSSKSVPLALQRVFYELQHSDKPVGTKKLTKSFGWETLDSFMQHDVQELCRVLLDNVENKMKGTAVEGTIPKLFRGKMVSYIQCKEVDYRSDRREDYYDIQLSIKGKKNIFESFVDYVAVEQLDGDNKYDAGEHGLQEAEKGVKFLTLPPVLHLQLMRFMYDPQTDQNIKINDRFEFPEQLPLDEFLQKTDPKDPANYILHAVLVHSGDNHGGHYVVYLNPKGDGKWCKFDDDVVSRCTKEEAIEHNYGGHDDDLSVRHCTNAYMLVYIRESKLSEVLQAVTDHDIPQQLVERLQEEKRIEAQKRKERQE

`Cc1ccc(-c2cc(CN3CC[C@@H](C(=O)N4CC[C@](O)(Cn5cnc(Oc6ccc(F)cc6)c(N)c5=O)C(F)(F)C4)[C@H](c4ccccc4)C3)ncn2)cn1` [Example 164, 5-amino-3-[[(4S)-3,3-difluoro-4-hydroxy-1-[(3R,4R)-1-[[6-(6-methyl-3-pyridyl)pyrimidin-4-yl}methyl]-3-phenyl-piperidine-4-carbonyl]-4-piperidyl]methyl]-6-(4-fluorophenoxy)pyrimidin-4-one]: the inhibition constant Ki at USP7 was 6.48 nM and 5.16 nM. Further, the IC50 in experiment [1] worked out at 1.83 nM.
On USP7, `Cc1ccccc1C1(N2CC[C@@H](C(=O)N3CCC(O)(Cn4cnc(Oc5ccc(F)cc5)c(N)c4=O)CC3)[C@H](c3ccccc3)C2)COC1` [Example 138] displayed an inhibitory constant (Ki) of 45 nM. The molecule also registered an IC50 in experiment [1] of 24 nM.
For `Cc1ccnc(CN2CC[C@@H](C(=O)N3CC[C@](O)(Cn4cnc(Oc5ccc(F)cc5)c(N)c4=O)C(F)(F)C3)[C@H](c3ccccc3)C2)n1` [Example 205], in that order: 35.8 nM and 23.5 nM.
Molecule `Nc1c(Oc2ccc(F)cc2)ncn(CC2(O)CCN(C(=O)[C@@H]3CCN(C(=O)c4cccc(Br)c4)C[C@H]3c3ccccc3)CC2)c1=O` [Example 31, 5-amino-3-({1-((3R,4R)-1-(3-bromobenzoyl)-3-phenylpiperidine-4carbonyl]-4-hydroxypiperidin-4-yl)methyl)-6-(4-fluorophenoxy)pyrimidin-4(3H)-one] had a Ki on USP7 of 9.15 nM. Further, the IC50 in experiment [1] is 5.45 nM.
For `Cc1nccc(CN2CC[C@@H](C(=O)N3CC[C@](O)(Cn4cnc(Oc5cccc(C(F)(F)F)c5)c(N)c4=O)C(F)(F)C3)[C@H](c3ccccc3)C2)n1` [Example 143, 5-amino-3-[[(4S)-3,3-difluoro-4-hydroxy-1-[(3R,4R)-1-[(2-methylpyrimidin-4-yl)methyl]-3-phenyl-piperidine-4-carbonyl]-4-piperidyl]methyl]-6-(3-(trifluoromethyl)phenoxy]pyrimidin-4-one], in that order: 42 nM and 217 nM.
`Nc1c(Oc2ccc(F)cc2)ncn(C[C@@]2(O)CCN(C(=O)[C@@H]3CCN(Cc4ccnc(-c5ccccc5)n4)C[C@H]3c3ccccc3)CC2(F)F)c1=O` [Example 177, 5-amino-3-[[(4S)-3,3-difluoro-4-hydroxy-1-[(3R,4R)-3-phenyl-1-[(2-phenylpyrimidin-4-yl)methyl]piperidine-4-carbonyl]-4-piperidyl]methyl]-6-(4-fluorophenoxy)pyrimidin-4-one] came in with an inhibition constant Ki at USP7 of 9.99 nM. In experiment [1], this molecule showed a half-maximal inhibitory concentration (IC50) of 2.32 nM.
On to `Cc1cncc(C(=O)N2CC[C@@H](C(=O)N3CC[C@](O)(Cn4cnc(Oc5ccc(F)cc5)c(N)c4=O)C(F)(F)C3)[C@H](c3ccccc3)C2)c1` [Example 157, 5-amino-3-[[(4S)-3,3-difluoro-4-hydroxy-1-[(3R,4R)-1-(5-methylpyridine-3-carbonyl)-3-phenyl-piperidine-4-carbonyl]-4-piperidyl]methyl]-6-(4-fluorophenoxy)pyrimidin-4-one], for which, at USP7, the Ki was 4.83 nM. For the same molecule, half-maximal inhibition in experiment [1] (IC50) was put at 5.18 nM.
In turn, `Cc1ccc(-c2nc(C)c(C(=O)N3CC[C@@H](C(=O)N4CCC(O)(Cn5cnc(Oc6ccc(F)cc6)c(N)c5=O)CC4)[C@H](c4ccccc4)C3)s2)cn1` [Example 47, 5-amino-6-(4-fluorophenoxy)-3-[(4-hydroxy-1-{(3R,4R)-1-[4-methyl-2-(6-methylpyridin-3-yl)-1,3-thiazole-5-carbonyl]-3-phenylpiperidine-4-carbonyl}piperidin-4-yl)methyl]pyrimidin-4(3H)-one] had a Ki on USP7 of 2.2 nM. Besides, the IC50 in experiment [1] was 0.92 nM.
For `Cc1cnc(CN2CC[C@@H](C(=O)N3CC[C@](O)(Cn4cnc(Oc5ccc(F)cc5)c(N)c4=O)C(F)(F)C3)[C@H](c3ccccc3)C2)cn1` [Example 201], in that order: 23.9 nM and 7.5 nM.
In the same order, the values of `Cc1nc(-c2ccc(N(C)C)nc2)sc1C(=O)N1CC[C@@H](C(=O)N2CCC(O)(Cn3cnc(Oc4ccc(F)cc4)c(N)c3=O)CC2)[C@H](c2ccccc2)C1` [Example 43, 5-amino-3-({1-[(3R,4R)-1-{2-[16-(dimethylamino)pyridin-3-yl-4-methyl-1,3-thiazole-5-carbonyl}-3-phenylpiperidine-4-carbonyl]-4-hydroxypiperidin-4-yl]}methyl)-6-(4-fluorophenoxy)pyrimidin-4(3H)-one] are 6.42 nM and 1.2 nM.
`Cc1cc(C(=O)N2CC[C@@H](C(=O)N3CCC(O)(Cn4cnc(Oc5ccc(F)cc5)c(N)c4=O)CC3)[C@H](c3ccccc3)C2)ccn1` [Example 91, 5-amino-6-(4-fluorophenoxy)-3-[[4-hydroxy-1-[(3R,4R)-1-(2-methylpyridine-4-carbonyl)-3-phenyl-piperidine-4-carbonyl]4-piperidyl]methyl]pyrimidin-4-one]: the Ki on USP7 is 13 nM. In addition, the concentration for half-maximal inhibition (IC50) in experiment [1] stood at 76 nM.
For `Cc1ccc(-c2nc(C)c(C(=O)N3CC[C@@H](C(=O)N4CCC(O)(Cn5cnc(Oc6ccc(Cl)c(F)c6)c(N)c5=O)CC4)[C@H](c4ccccc4)C3)s2)cn1` [Example 24, 5-amino-6-(4-chloro-3-fluorophenoxy)-3-[(4-hydroxy-1-{(3R,4R)-1-[4-methy-2-(6-methylpyridin-3-yl)-1,3-thiazole-5-carbonyl]-3-phenylpiperidine-4-carbonyl}piperidin-4-yl)methyl]pyrimidin-4(3H)-one], in that order: 4 nM and 9.9 nM.
For `Nc1c(Oc2ccc(F)cc2)ncn(CC2(O)CCN(C(=O)[C@@H]3CCN(C(=O)c4cncc(C(F)(F)F)c4)C[C@H]3c3ccccc3)CC2)c1=O` [Example 122, 5-amino-6-(4-fluorophenoxy)-3-[(4-hydroxy-1-{(3R,4R)-3-phenyl-1-[5-(trifluoromethyl)pyridine-3-carbonyl]piperidine-4-carbonyl}piperidin-4-yl)methyl]pyrimidin-4(3H)-one], in that order: 13.6 nM and 23 nM.
For `Nc1c(Oc2ccc(F)cc2)ncn(CC2(O)CCN(C(=O)[C@@H]3CCN(C(=O)C(F)(F)c4ccccc4)C[C@H]3c3ccccc3)CC2)c1=O` [Example 75, 5-amino-3-[[1-[(3R,4R)-1-(2,2-difluoro-2-phenyl-acetyl)-3-phenyl-piperidine-4-carbonyl]-4-hydroxy-4-piperidyl]methyl]-6-(4-fluorophenoxy)pyrimidin-4-one], in that order: 39 nM and 43 nM.
For the molecule `Cc1ccc(-c2nc(C)c(C(=O)N3CC[C@@H](C(=O)N4CCC(O)(Cn5cnc(Oc6cccc(OC(F)(F)F)c6)c(N)c5=O)CC4)[C@H](c4ccccc4)C3)s2)cn1` [Example 27, 5-amino-3-[(4-hydroxy-1-((3R,4R)-1-[4-methyl-2-(6-methylpyridin-3-yl)-1,3-thiazole-5-carbonyl]-3-phenylpiperidine-4carbonyl}piperidin-4-yl)methyl]-6-[3-(trifluoromethoxy)phenoxy]pyrimidin-4(3H)-one], the Ki on USP7 stood at 8.8 nM. This molecule came in with a concentration for half-maximal inhibition (IC50) in experiment [1] of 17 nM.
In the same order, the values of `Cc1cncc(C(=O)N2CC[C@@H](C(=O)N3CCC(O)(Cn4cnc(Oc5ccc(F)cc5)c(N)c4=O)CC3)[C@H](c3ccccc3)C2)c1` [Example 92, 5-amino-6-(4-fluorophenoxy)-3-({4-hydroxy-1-[(3R,4R)-1-(5-methylpyridine-3-carbonyl)-3-phenylpiperidine-4-carbonyl]piperidin-4-yl}methyl)pyrimidin-4(3H)-one] are 4.9 nM and 45.7 nM.
For `Cc1ccc(-c2nc(C)c(C(=O)N3CC[C@@H](C(=O)N4CCC(O)(Cn5cnc(Oc6ccc(Cl)cc6)c(N)c5=O)CC4)[C@H](c4ccccc4)C3)s2)cn1` [Example 22, 5-amino-6-(4-chlorophenoxy)-3-[(4-hydroxy-1-{(3R,4R)-1-[4-methyl-2-(6-methylpyridin-3-yl)-1,3-thiazole-5-carbonyl]-3-phenylpiperidine-4-carbonyl}piperidin-4-yl)methyl]pyrimidin-4(3H)-one], in that order: 3 nM and 4 nM.
In the same order, the values of `Cn1c(C(=O)N2CC[C@@H](C(=O)N3CCC(O)(Cn4cnc(Oc5ccc(F)cc5)c(N)c4=O)CC3)[C@H](c3ccccc3)C2)ccc1-c1ccccc1` [Example 38] are 14 nM and 11 nM.
On USP7, `Cc1ccc(-c2cncc(C(=O)N3CC[C@@H](C(=O)N4CCC(O)(Cn5cnc(Oc6ccc(F)cc6)c(N)c5=O)CC4)[C@H](c4ccccc4)C3)c2)cn1` [Example 34, 5-amino-6-(4-fluorophenoxy)-3-({4-hydroxy-1-[(3R,4R)-1-(6′-methyl[3,3′-bipyridine]-5-carbonyl)-3-phenylpiperidine-4-carbonyl]piperidin-4-yl}methyl)pyrimidin-4(3H)-one] registered a Ki of 3.58 nM. In experiment [1], the concentration for half-maximal inhibition (IC50) was 11 nM.
For `Cc1nc(C2CCOCC2)sc1C(=O)N1CC[C@@H](C(=O)N2CC[C@](O)(Cn3cnc(Oc4ccc(F)cc4)c(N)c3=O)C(F)(F)C2)[C@H](c2ccccc2)C1` [Example 192, 5-amino-3-[[(4S)-3,3-difluoro-4-hydroxy-1-[(3R,4R)-1-(4-methyl-2-tetrahydropyran-4-yl-thiazole-5-carbonyl)-3-phenyl-piperidine-4-carbonyl]-4-piperidyl]methyl]-6-(4-fluorophenoxy)pyrimidin-4-one], in that order: 8.8 nM and 8.48 nM.
